Reference: patent US11576947B2, “Oral composition and method” (Kunming Lanchie Dental Hospital, LTD, priority 2019, dated 2023)
Where two headings read alike, the source gives them in different places.

Assays:
[1] = hydrogen peroxide not stabilized, cited from earlier work
[2] = Stability test in aqueous system (Brilliant Blue color dissipation); assay type: physicochemical; design: key: ++++: no color dissipation; +++: slightly dissipation; ++: obvious dissipation; +: totally dissipated
[3] = Stability test in propylene glycol (Brilliant Blue color dissipation); assay type: physicochemical; design: key: ++++: no color dissipation; +++: slightly dissipation; ++: obvious dissipation; +: totally dissipated
[4] = System stability evaluation: compatibility of ingredients with peroxide source and the system; conditions: for Effect on peroxide and system stability: summary of testing of Tables 2 and 3
[5] = water, 2.76% carbamide peroxide, 0.002% Brilliant Blue, compound amount 2%, 60 days, room temperature
[6] = propylene glycol, 2.76% carbamide peroxide, 0.002% Brilliant Blue, compound amount 2%, 60 days, room temperature
[7] = water, 2.76% carbamide peroxide, 0.002% Brilliant Blue, compound amount 0.1%, 60 days, room temperature
[8] = propylene glycol, 2.76% carbamide peroxide, 0.002% Brilliant Blue, compound amount 0.1%, 60 days, room temperature
[9] = water, 2.76% carbamide peroxide, 0.002% Brilliant Blue, compound amount 1%, 60 days, room temperature
[10] = propylene glycol, 2.76% carbamide peroxide, 0.002% Brilliant Blue, compound amount 1%, 60 days, room temperature
[11] = water, 2.76% carbamide peroxide, 0.002% Brilliant Blue, compound amount 15%, 60 days, room temperature
[12] = propylene glycol, 2.76% carbamide peroxide, 0.002% Brilliant Blue, compound amount 15%, 60 days, room temperature

In the case of `[Fe+3]` [Fe(III)], the “Oxygen lost % (24 hr, 100 C.)” value ([1]; metal ion added 10 ppm) is given as 15%.

For Lauryl glucoside, the “Color (color fading grade)” value [2, 5] was “+” and the “Color (color fading grade)” value [3, 6] was “+”.

With Cocamidopropyl betaine the “Color (color fading grade)” value [2, 5] was “++++” and the “Color (color fading grade)” value [3, 6] was “++++”.

For `[Cu+2]` [Cu(II)], the “Oxygen lost % (24 hr, 100 C.)” value ([1]; metal ion added 0.01 ppm) is listed as 24%.

With `OC[C@@H](O)[C@@H](O)[C@H](O)[C@@H](O)CO` [Sorbitol] the “Color (color fading grade)” value ([2]; water, 2.76% carbamide peroxide, 0.002% Brilliant Blue, compound amount 60%, 60 days, room temperature) was “+” and the “Color (color fading grade)” value ([3]; propylene glycol, 2.76% carbamide peroxide, 0.002% Brilliant Blue, compound amount 60%, 60 days, room temperature) was “+”.

For `CCCCCCCCCCCCCCCC[n+]1ccccc1.[Cl-]` [Hexadecylpyridinium Chloride, Hexadecylpyridinium chloride, reference compound], the “Color (color fading grade)” value [2, 7] was “+” and the “Color (color fading grade)” value [3, 8] was “++”.

In the case of `O=P(O)(O)OP(=O)(O)OP(=O)(O)O` [Sodium tripolyphosphate], the “Compatibility with the system (cationic biocide and peroxide source)” value (“Compatibility with the system” for short) [4] is reported as “not compatible” and the “Color (color fading grade)” value ([3]; propylene glycol, 2.76% carbamide peroxide, 0.002% Brilliant Blue, compound amount 5%, 60 days, room temperature) is reported as “+”.

For `CCCCCCCCCCCCOS(=O)(=O)[O-].[Na+]` [Sodium Dodecyl Sulfate], the “Compatibility with the system” value [4] was “incompatible”, the “Effect on peroxide and system stability” value [4] was “activate the peroxide and make the system unstable” and the “Color (color fading grade)” value [2, 9] was “+”. For the same compound, the “Color (color fading grade)” value [3, 10] was “+”.

In the case of `O=P([O-])([O-])OP(=O)([O-])[O-].[Ca+2].[Ca+2]` [Calcium pyrophosphate], the “Color (color fading grade)” value [2] is reported as “+” and the “Color (color fading grade)” value [3] is reported as “+”.

For `O=P([O-])(O)OP(=O)([O-])O.[Na+].[Na+]` [Sodium acid pyrophosphate], the “Color (color fading grade)” value [2, 9] was “++” and the “Color (color fading grade)” value [3, 10] was “++”.

In the case of `O=C([O-])CN(CCN(CC(=O)[O-])CC(=O)O)CC(=O)O.[Na+].[Na+]` [Disodium EDTA], the “Color (color fading grade)” value [2, 7] is reported as “+++” and the “Color (color fading grade)” value [3, 8] is reported as “+++”.

With `[F-].[Na+]` [Sodium fluoride] the “Color (color fading grade)” value [2, 7] was “++” and the “Color (color fading grade)” value [3, 8] was “+++”.

In the case of Natural calcium carbonate, the “Compatibility with the system” value [4] is reported as “not compatible”, the “Color (color fading grade)” value [2, 11] is reported as “+” and the “Color (color fading grade)” value [3, 12] is reported as “+”.

For `O=C([O-])[O-].[Ca+2]` [Precipitate calcium carbonate], the “Compatibility with the system” value [4] was “not compatible”, the “Effect on peroxide and system stability” value [4] was “activate the peroxide and make the system unstable” and the “Color (color fading grade)” value [2, 11] was “+”. For the same compound, the “Color (color fading grade)” value [3, 12] was “+”.

With `O=C1NS(=O)(=O)c2ccccc21.[Na]` [Sodium saccharin] the “Compatibility with the system” value [4] was “compatible”, the “Color (color fading grade)” value [2] was “++” and the “Color (color fading grade)” value [3] was “+++”.

In the case of Sucrose fatty acid ester, the “Color (color fading grade)” value [2, 9] is reported as “+” and the “Color (color fading grade)” value [3, 10] is reported as “+”.

In the case of `N=C(NCCCCCCNC(=N)NC(=N)Nc1ccc(Cl)cc1)NC(=N)Nc1ccc(Cl)cc1` [Chlorhexydine, reference compound], the “Color (color fading grade)” value [2, 7] is reported as “+” and the “Color (color fading grade)” value [3, 8] is reported as “++”.

In the case of `OC[C@H]1O[C@H](O[C@]2(CCl)O[C@H](CCl)[C@@H](O)[C@@H]2O)[C@H](O)[C@@H](O)[C@H]1Cl` [Sucralose], the “Compatibility with the system” value [4] is reported as “compatible”, the “Color (color fading grade)” value ([2]; water, 2.76% carbamide peroxide, 0.002% Brilliant Blue, compound amount 0.5%, 60 days, room temperature) is reported as “++” and the “Color (color fading grade)” value ([3]; propylene glycol, 2.76% carbamide peroxide, 0.002% Brilliant Blue, compound amount 0.5%, 60 days, room temperature) is reported as “+++”.

For Fatty Alcohol Polyoxyethylene Ether 9, the “Compatibility with the system” value [4] was “compatible”, the “Color (color fading grade)” value [2, 5] was “+++” and the “Color (color fading grade)” value [3, 6] was “+++”.

For `OCC(O)CO` [Glycerin], the “Color (color fading grade)” value ([2]; water, 2.76% carbamide peroxide, 0.002% Brilliant Blue, compound amount 20%, 60 days, room temperature) was “+” and the “Color (color fading grade)” value ([3]; propylene glycol, 2.76% carbamide peroxide, 0.002% Brilliant Blue, compound amount 20%, 60 days, room temperature) was “++”.

For `CC1CCC(C(C)C)C(O)C1` (centres unmarked) [Menthol], the “Compatibility with the system” value [4] was “compatible”, the “Color (color fading grade)” value [2, 7] was “+++” and the “Color (color fading grade)” value [3, 8] was “+++”.

For `[Al+3]` [Al (III)], the “Oxygen lost % (24 hr, 100 C.)” value ([1]; metal ion added 10 ppm) is given as 2%.

With `CCCCCCCCCC[N+](C)(C)CCCCCCCCCC.O=C1CC[C@@H](C(=O)[O-])N1` [PODA, Proline, 5-oxo-, ion(1-), N-decyl-N,N-dimethyl-1-decanaminium (1:1)] the “Color (color fading grade)” value [2, 7] was “+” and the “Color (color fading grade)” value [3, 8] was “++”.

In the case of `[Zn+2]` [Zn(II)], the “Oxygen lost % (24 hr, 100 C.)” value ([1]; metal ion added 10 ppm) is listed as 10%.

With `O=P([O-])([O-])OP(=O)([O-])[O-].[Na+].[Na+].[Na+].[Na+]` [Tetrasodium pyrophosphate] the “Compatibility with the system” value [4] was “not compatible”, the “Color (color fading grade)” value [2] was “+” and the “Color (color fading grade)” value [3] was “+”.
